Data on one molecule can be found in ChEMBL document CHEMBL6087456 (J Med Chem, 2025).

pEC50, pIC50: −log10 of the molar value. Converted amounts (≈) assume the structure as drawn. The source made the active and inactive calls. The calls are words filed in the database; no cut-off is given here. Where only a bound is given, the exact number is not on record here.

Data set [1] addresses Dihydroorotate dehydrogenase (quinone), mitochondrial (Homo sapiens, UniProt Q02127). The data set can be described thus: Inhibition of C-terminal His6-tagged recombinant human DHODH (29 to 395 residues) N-terminally truncated soluble domain extracted from Escherichia coli phage resistant BL21-DE3 using CoQD/DHA/DCIP as substrates.
The subject of data set [2] is Plasmodium falciparum. The data set can be described thus: Antiparasitic activity against asexual blood stage Plasmodium falciparum 3D7 incubated for 72 hrs by SYBR Green assay. Particulars: 3D7, 72 h. Format: functional, organism-based.
Data set [3] in a line: Kinetic solubility of compound at pH 6.5 measured after 30 mins by nephelometry. It counts as physicochemical. Particulars: buffer, pH 6.5, read-out: Kinetic_solubility.
Data set [4] can be described thus: Metabolic stability in human liver microsomes assessed as intrinsic clearance at 0.5 uM incubated for 60 mins in presence of NADPH by tandem quadrupole-Time of Flight MS. It counts as ADME, Microsome. Particulars: 1 h. A general note: Liver microsomes are vesicles of endoplasmic reticulum, rich in cytochrome P450 enzymes.
The nature of data set [5]: Cytotoxicity against human HepG2 cells by Cell Titer Glo assay. Format: toxicity, cell-based. Background: Cellular ATP, detected with luciferase, serves as a proxy for viable cell number.
Data set [6] has as its system Plasmodium falciparum. The data set can be described thus: Antiparasitic activity against Plasmodium falciparum 3D7 assessed as lag time before killing at 10 times EC50 pretreated for 120 hrs followed by compound removal and replacement of media without compound measured after 28 days by cell killing assay. It counts as functional.
Data set [7] in a line: Plasma protein binding in human measured for 6 hrs by rapid equilibrium dialysis. It counts as ADME, cell-free. For orientation: In equilibrium dialysis only unbound substance equilibrates across the membrane.
Data set [8] is described as follows: Oral bioavailability in overnight-fasted male Sprague-Dawley rat at 3 mg/kg measured upto 72 hrs by LCMS analysis. It counts as ADME, organism-based. Particulars: in vivo.
Data set [9] can be described thus: Oral absorption in overnight-fasted male Sprague-Dawley rat at 3 mg/kg measured upto 72 hrs by LCMS analysis. To be noted: in vivo. It counts as ADME, organism-based.
Data set [10] deals with T1, Cytochrome P450 1A2 (Homo sapiens, UniProt P05177).
T1 sequence (P05177 whole entry): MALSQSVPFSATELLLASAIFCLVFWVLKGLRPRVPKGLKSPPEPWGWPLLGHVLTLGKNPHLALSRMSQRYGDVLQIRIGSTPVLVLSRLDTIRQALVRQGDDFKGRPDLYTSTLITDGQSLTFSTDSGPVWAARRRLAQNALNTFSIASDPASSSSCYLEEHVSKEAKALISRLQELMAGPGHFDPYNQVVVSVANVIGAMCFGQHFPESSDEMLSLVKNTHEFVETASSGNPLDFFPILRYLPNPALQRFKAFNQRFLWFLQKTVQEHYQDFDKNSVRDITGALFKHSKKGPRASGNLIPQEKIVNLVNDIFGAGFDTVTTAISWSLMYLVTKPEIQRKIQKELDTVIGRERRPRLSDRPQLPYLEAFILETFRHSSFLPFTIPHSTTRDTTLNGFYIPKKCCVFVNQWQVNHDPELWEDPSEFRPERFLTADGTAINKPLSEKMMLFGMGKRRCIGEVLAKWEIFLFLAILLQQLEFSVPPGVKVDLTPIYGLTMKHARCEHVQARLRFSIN
The data set can be described thus: Inhibition of CYP1A2 in human liver microsomes. Format: ADME, Microsome.

Data set [11] concerns the target T2, Cytochrome P450 2B6 (Homo sapiens, UniProt P20813).
T2 sequence (P20813 whole entry): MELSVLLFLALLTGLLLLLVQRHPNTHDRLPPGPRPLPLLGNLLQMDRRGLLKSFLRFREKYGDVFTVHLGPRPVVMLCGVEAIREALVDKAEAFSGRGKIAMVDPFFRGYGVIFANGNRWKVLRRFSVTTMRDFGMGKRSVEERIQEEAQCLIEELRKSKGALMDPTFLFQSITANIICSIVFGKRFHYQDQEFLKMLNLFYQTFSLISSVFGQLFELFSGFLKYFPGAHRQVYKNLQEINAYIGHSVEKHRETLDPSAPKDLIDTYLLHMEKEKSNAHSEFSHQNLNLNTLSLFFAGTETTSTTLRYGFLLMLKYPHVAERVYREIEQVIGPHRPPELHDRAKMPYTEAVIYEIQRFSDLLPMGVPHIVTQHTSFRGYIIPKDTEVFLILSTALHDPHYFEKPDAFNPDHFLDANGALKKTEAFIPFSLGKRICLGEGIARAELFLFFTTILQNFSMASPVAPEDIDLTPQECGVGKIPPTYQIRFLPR
The data set can be described thus: Inhibition of CYP2B6 in human liver microsomes. It counts as ADME, Microsome.

The target of another data set is Cytochrome P450 3A4 (Homo sapiens, UniProt P08684). The data set can be described thus: Inhibition of CYP3A4 in human liver microsomes. Format: ADME, Microsome.
Sequence of Cytochrome P450 3A4 (P08684 whole entry): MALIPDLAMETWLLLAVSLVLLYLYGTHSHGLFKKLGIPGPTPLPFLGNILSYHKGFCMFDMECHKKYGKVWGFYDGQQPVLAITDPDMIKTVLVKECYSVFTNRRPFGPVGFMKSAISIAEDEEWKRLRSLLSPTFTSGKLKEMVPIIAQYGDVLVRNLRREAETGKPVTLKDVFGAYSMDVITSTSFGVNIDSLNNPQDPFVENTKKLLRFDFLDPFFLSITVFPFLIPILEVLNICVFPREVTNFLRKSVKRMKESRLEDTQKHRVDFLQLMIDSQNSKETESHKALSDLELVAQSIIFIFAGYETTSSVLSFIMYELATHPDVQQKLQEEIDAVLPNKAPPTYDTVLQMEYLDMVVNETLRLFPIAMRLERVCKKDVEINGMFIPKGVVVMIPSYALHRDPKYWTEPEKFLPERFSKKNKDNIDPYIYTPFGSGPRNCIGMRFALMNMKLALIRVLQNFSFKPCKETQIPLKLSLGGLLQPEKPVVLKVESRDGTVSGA
For data set [12], the target named is T1, Cytochrome P450 1A2. The data set can be described thus: Time-dependent inhibition of CYP1A2 in human liver microsomes. It counts as ADME, Microsome.
Data set [13] has as its target T2, Cytochrome P450 2B6. The data set can be described thus: Time-dependent inhibition of CYP2B6 in human liver microsomes. It counts as ADME, Microsome.
The target in another data set is T3, Cytochrome P450 2C8 (Homo sapiens, UniProt P10632).
T3 sequence (P10632 whole entry): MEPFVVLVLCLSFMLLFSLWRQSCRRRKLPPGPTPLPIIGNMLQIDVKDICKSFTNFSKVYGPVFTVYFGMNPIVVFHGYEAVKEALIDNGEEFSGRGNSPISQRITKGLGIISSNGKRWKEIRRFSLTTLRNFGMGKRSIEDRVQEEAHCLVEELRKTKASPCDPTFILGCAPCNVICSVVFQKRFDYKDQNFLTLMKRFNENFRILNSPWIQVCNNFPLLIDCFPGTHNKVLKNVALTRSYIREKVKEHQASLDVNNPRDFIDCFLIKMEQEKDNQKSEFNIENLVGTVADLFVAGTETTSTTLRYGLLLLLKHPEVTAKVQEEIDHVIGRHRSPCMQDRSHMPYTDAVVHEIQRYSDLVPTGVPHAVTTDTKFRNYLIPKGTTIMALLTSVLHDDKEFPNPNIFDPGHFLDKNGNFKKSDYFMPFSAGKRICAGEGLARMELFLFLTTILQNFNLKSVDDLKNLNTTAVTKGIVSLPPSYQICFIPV
The data set can be described thus: Time-dependent inhibition of CYP2C8 in human liver microsomes. It counts as ADME, Microsome.

In the next data set the target is Cytochrome P450 2C19 (Homo sapiens, UniProt P33261). The data set can be described thus: Time-dependent inhibition of CYP2C19 in human liver microsomes. It counts as ADME, Microsome.
Sequence of Cytochrome P450 2C19 (P33261 whole entry): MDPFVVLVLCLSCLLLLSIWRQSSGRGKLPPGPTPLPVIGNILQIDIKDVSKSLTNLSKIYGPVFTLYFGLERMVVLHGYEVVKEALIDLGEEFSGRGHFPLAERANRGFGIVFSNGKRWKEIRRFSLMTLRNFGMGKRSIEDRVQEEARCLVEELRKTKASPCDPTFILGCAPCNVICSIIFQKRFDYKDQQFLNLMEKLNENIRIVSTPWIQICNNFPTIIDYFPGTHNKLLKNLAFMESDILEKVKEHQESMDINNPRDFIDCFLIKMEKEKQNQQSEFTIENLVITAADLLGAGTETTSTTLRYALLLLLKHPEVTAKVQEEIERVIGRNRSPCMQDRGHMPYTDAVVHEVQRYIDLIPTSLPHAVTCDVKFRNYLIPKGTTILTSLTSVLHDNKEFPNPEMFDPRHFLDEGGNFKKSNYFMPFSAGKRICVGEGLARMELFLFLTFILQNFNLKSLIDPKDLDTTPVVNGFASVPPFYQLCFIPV
Data set [14] has as its target Voltage-gated inwardly rectifying potassium channel KCNH2 (Homo sapiens, UniProt Q12809). The data set can be described thus: Inhibition of hERG expressed in CHO cells by whole-cell patch-clamp assay. It counts as toxicity, cell-based.
The target of data set [15] is Prostaglandin G/H synthase 1 (Homo sapiens) (UniProt P23219). The data set can be described thus: Inhibition of COX1 (unknown origin) at 10 uM relative to control.
Sequence of Prostaglandin G/H synthase 1 (Homo sapiens) (P23219 whole entry): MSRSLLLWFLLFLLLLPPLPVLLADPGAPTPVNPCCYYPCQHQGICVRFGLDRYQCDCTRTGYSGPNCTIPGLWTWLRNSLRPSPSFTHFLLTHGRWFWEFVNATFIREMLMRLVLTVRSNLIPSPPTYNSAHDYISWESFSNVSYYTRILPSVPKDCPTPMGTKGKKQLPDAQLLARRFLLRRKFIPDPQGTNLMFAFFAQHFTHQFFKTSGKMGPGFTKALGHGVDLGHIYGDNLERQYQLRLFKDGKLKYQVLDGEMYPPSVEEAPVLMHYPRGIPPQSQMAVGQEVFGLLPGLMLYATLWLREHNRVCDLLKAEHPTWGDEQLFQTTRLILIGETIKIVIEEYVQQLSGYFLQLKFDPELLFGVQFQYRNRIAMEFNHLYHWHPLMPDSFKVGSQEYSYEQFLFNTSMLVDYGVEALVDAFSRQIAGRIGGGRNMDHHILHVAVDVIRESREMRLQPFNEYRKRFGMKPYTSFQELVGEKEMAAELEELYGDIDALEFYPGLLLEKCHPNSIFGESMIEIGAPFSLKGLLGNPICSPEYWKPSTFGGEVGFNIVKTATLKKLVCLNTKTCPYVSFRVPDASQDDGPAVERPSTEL
The test system of data set [16] is Plasmodium falciparum. The data set can be described thus: Antimalarial activity against erythrocyte asexual stage Plasmodium falciparum 3D7 0087/N9 infected in humanized SCID mouse model at 1 to 30 mg/kg administered once daily for 6 days measured on day 9. Format: functional, organism-based. To be noted: dose 1-30 mg/kg, time 6.0 day.
The subject of data set [17] is Plasmodium falciparum. The data set can be described thus: Prevention of re-infection of new erythrocytes in humanized SCID mouse model infected with erythrocyte asexual stage Plasmodium falciparum 3D7 0087/N9 at 1 to 30 mg/kg administered once daily for 6 days. It counts as functional, organism-based. Particulars: dose 1-30 mg/kg, time 6.0 day.
The test system of data set [18] is Plasmodium falciparum. The data set can be described thus: Antimalarial activity against erythrocyte asexual stage Plasmodium falciparum 3D7 0087/N9 infected in humanized SCID mouse model assessed as elimination of trophozoites at second life cycle at 1 to 30 mg/kg administered once daily measured for 48 to 96 hrs. Format: functional, organism-based. Particulars: dose 1-30 mg/kg, time lower […], time upper […].

Sequence of Voltage-gated inwardly rectifying potassium channel KCNH2 (Q12809 whole entry): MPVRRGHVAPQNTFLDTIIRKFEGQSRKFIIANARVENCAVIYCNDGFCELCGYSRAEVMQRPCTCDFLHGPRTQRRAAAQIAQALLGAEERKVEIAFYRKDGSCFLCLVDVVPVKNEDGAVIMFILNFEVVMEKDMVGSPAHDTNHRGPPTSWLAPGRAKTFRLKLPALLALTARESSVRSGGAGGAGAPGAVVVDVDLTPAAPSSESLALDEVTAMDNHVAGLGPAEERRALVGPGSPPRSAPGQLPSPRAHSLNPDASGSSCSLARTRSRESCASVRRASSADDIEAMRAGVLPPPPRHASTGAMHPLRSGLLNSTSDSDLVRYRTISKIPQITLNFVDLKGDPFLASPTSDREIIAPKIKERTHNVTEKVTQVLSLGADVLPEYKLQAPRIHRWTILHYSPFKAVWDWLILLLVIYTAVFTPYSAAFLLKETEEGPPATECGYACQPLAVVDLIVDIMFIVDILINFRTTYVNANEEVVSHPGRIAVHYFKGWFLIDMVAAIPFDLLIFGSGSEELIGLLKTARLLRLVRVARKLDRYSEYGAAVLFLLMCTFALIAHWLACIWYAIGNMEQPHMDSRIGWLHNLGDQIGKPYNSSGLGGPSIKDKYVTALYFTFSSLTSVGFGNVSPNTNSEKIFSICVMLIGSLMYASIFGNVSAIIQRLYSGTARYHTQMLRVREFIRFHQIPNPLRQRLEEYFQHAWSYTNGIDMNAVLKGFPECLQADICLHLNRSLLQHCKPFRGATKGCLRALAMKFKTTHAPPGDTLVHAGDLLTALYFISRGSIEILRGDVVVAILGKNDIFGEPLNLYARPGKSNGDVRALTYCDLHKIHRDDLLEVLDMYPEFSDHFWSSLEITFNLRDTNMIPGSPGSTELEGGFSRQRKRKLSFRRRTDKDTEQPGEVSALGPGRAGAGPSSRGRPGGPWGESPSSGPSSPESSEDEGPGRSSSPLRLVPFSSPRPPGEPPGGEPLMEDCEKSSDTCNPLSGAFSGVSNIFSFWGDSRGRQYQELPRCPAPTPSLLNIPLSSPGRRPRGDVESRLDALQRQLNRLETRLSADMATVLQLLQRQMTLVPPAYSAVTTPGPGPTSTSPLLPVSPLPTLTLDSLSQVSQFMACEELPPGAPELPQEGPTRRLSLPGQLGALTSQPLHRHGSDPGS
Sequence of Dihydroorotate dehydrogenase (quinone), mitochondrial (Q02127 whole entry, the tested form may be a part): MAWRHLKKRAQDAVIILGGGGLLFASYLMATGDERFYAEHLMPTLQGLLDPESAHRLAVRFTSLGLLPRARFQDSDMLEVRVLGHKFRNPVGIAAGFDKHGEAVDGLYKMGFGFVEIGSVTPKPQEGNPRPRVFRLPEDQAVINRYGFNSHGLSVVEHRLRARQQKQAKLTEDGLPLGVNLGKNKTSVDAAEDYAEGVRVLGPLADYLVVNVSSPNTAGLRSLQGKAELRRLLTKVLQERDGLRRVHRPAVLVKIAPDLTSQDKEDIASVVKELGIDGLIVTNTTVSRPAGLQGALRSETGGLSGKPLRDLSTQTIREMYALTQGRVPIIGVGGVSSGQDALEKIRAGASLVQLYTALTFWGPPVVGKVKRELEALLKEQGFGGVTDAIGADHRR

Turning to `Cn1nc2c(=O)n(C3CC3)cnc2c1[C@](O)(c1cnc(C(F)(F)F)c(Cl)c1)C(F)(F)F`, the negative-log IC50 (pIC50) is less than 4.52 in data set [1], less than 4.70 against Cytochrome P450 1A2 [10], less than 4.70 against Cytochrome P450 2B6 [11] and less than 4.70 against Cytochrome P450 3A4. Moreover, the results for the pEC50 (with Plasmodium falciparum [2]; in data set [14]) were 9.00 and approximately 4.30, respectively. Besides, the solubility kinetic at 0.5 h in data set [3] came out at 80 µM (≈ 37.4 µg/mL). Moreover, the “intrinsic clearance (CLint)” value in [4] is less than 3 µL/min/mg. Also, the CC50 in data set [5] was more than 20 µM. For the same molecule, the Time in the data set on Plasmodium falciparum [6] is approximately 26 h. In data set [7], the PPB is listed as 98.9%. In addition, in data set [8], the F is given as more than 89%. The Fa at 72 h in data set [9] was 100%. Further, the TDI entry at Cytochrome P450 1A2 [12], on Cytochrome P450 2B6 [13], at Cytochrome P450 2C8 and on Cytochrome P450 2C19 was “Not_active” in each case. In data set [15], this molecule yielded an inhibition of 50%. Moreover, the result in the data set on Plasmodium falciparum [16] and in the data set with Plasmodium falciparum [18] was Active. Also, the result in the data set with Plasmodium falciparum [17] was inactive.

By pIC50 is commonly meant the IC50 on a negative log10 scale, so that one unit is a factor of ten. The pEC50 is the negative decadic logarithm of the EC50, by convention in mol/L. Read a high pEC50 as a small EC50. As usually defined, the CC50 is the concentration giving 50% cytotoxicity. The term inhibition denotes the percentage by which the read-out fell short of the control. The low end stands for little suppression, the high end for strong suppression.
